Measurements reported in patent US20200214324A1, “Masking Bitter Flavors” (Board of Supervisors of Louisiana State University and …, priority 2009, published 2020).
Where two headings read alike, the source gives them in different places.

What was measured:
[1] = taste of the mogroside itself and blocking of bitter tastes; format: in vivo
Excerpt: In many (but not necessarily all) uses of the present invention, it is preferred to use levels of mogroside below the threshold at which the mogroside imparts a sweetening effect. […] Mogroside V is sweet. Mogroside III has been reported to be tasteless. […] If desired, it should be possible to use Mogroside III in higher concentration than Mogroside V to block bitter or other unwanted tastes, without imparting any sweetening effect.

[2] = has been reported; cited from earlier work
[3] = blind tasting of poached chicken liver and chicken gizzard puree; format: in vivo
Description: In initial experiments, Mogroside V was tested at varying levels from 100-500 ppm. […] Mogroside V was added to a chicken liver and chicken gizzard puree, and the puree was poached to an internal temperature of 74° C. A control puree with no mogroside was identically cooked. Six individuals tasted the samples blind and could easily differentiate them.

[4] = sodium reduction blends tested on whole wheat crackers; format: in vivo
Description: (§1) These sodium reduction blends were tested with red beans, navy beans, crackers, and potato chips. Results are shown in Table III (in which “M” is an abbreviation for Mogroside V.)

[5] = sodium reduction blends tested on shredded wheat crackers; format: in vivo
Description: as §1

[6] = sodium reduction blends tested on potato chips; format: in vivo
Description: as §1

[7] = sodium reduction blends tested on red beans; format: in vivo
Description: as §1

[8] = sodium reduction blends tested on navy beans; format: in vivo
Description: as §1

C[C@H](CC[C@@H](O[C@@H]1O[C@H](CO[C@@H]2O[C@H](CO)[C@@H](O)[C@H](O)[C@H]2O)[C@@H](O)[C@H](O)[C@H]1O)C(C)(C)O)[C@H]1CC[C@@]2(C)[C@@H]3CC=C4[C@@H](CC[C@H](O[C@@H]5O[C@H](CO)[C@@H](O)[C@H](O)[C@H]5O)C4(C)C)[C@]3(C)[C@H](O)C[C@]12C [Mogroside III]
blocking of bitter tastes ([1]; preliminary tests): effectively blocks bitter tastes
taste of the compound itself [2]: tasteless

C[C@H](CC[C@@H](O[C@@H]1O[C@H](CO[C@@H]2O[C@H](CO)[C@@H](O)[C@H](O)[C@H]2O)[C@@H](O)[C@H](O)[C@H]1O[C@@H]1O[C@H](CO)[C@@H](O)[C@H](O)[C@H]1O)C(C)(C)O)[C@H]1CC[C@@]2(C)[C@@H]3CC=C4[C@@H](CC[C@H](O[C@@H]5O[C@H](CO[C@@H]6O[C@H](CO)[C@@H](O)[C@H](O)[C@H]6O)[C@@H](O)[C@H](O)[C@H]5O)C4(C)C)[C@]3(C)[C@H](O)C[C@]12C [Mogroside V]
taste description by six blind tasters ([3]; 150-250 ppm, puree poached to 74° C., control livery, organy, bloody): slightly sweet, “bologna-like,” and “bland.”
effect above the preferred range ([3]; above about 250 ppm): a very sweet taste developed
effect below the preferred range ([3]; below about 150 ppm): the effect was minimal
preferred levels of mogroside ([3]; initial experiments, tested 100-500 ppm): 150-250 ppm
preference of testers ([3]; samples with mogroside vs control puree, six individuals): All testers preferred the samples with mogroside
level preferred by the majority of testers ([3]; tested 100-500 ppm): 200 ppm
taste of the compound itself ([1]; in vivo): sweet

[Cl-].[Na+] [NaCl]
Overall Taste [4]: 7.04
Saltiness [4]: 6.96
Overall Taste [5]: 6.04
Saltiness [5]: 6.04
Overall Taste [6]: 6.97
Saltiness [6]: 6.92
Overall Taste [7]: 6.79
Saltiness [7]: 6.63
Overall Taste [8]: 6.17
Saltiness [8]: 6.13
